This note sets out measurements from publication PMC9352670 (2022).

Molecules are shown by their SMILES.

The experiment has as its system Dm-HS-1 TTC ∆ s.c. (DNA, aptamer, no side-chain at 22 (codon 2 TTC); others as HFNAP: fluorophenyl at 19; allylamine at 25, 37; alcohol at 28, 34, 49; phenol at 31, 46; cyclopentyl at 40; cyclopropyl at 43, 58; imidazole at 52, 55, 61) GAAAGCAGGACTGGAGATCGATTCTGGTGCTGTTGATCTCCGCCATTGTGCTCCTACCCTTCACAGACCGAACTAGAGCTT
Kind of experiment: microscale thermophoresis. The following applies: 5 mM KCl, 1 mM MgCl2, 1 mM CaCl2 added to HBS-P+; HBS-P+ buffer, 25 °C.

On to `COc1cccc2c1C(=O)c1c(O)c3c(c(O)c1C2=O)C[C@@](O)(C(C)=O)C[C@@H]3O[C@H]1C[C@H](N)[C@H](O)[C@H](C)O1`, for which the Kd (usually the concentration at which binding is half-saturated) amounted to 16.2 ± 3.2 nM.
